Results on 19 compounds are retold here after US10106526B2, “Inhibitors of cyclin-dependent kinase 7 (CDK7)” (SYROS PHARMACEUTICALS, INC., priority 2014, dated 2018).

One experiment concerns Jurkat cells. Nature of the experiment: Inhibition of proliferation of Jurkat cells (CellTiter-Glo, 72 hour). The class given is cell-based, human. To be noted: 10 μM to 316 pM. In short, it runs like this:
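Human T-cell leukemia Jurkat cells in RPMI 1640 with 10% FBS were exposed 72 h at 37 °C, 5% CO2 to compounds from 10 μM to 316 pM in 0.5-log steps. Anti-proliferative effect measured by CellTiter-Glo; IC50 reported in binned categories.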
A general note: In ATP-based viability assays light output follows the ATP content of the culture.

For a further experiment, the system named is A673 cells. Nature of the experiment: Inhibition of proliferation of A673 cells (CyQUANT, 72 hour). It counts as cell-based, human. Particulars: 72 hour proliferation. In short, it runs like this:
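Human Ewing's sarcoma A673 cells in DMEM + 10% FBS + 1 mM sodium pyruvate, 37 °C, 5% CO2, exposed to compounds from 4 μM to 126.4 pM (0.5 log dilutions) for 72 h. Proliferation read by CyQUANT; IC50 reported as binned categories.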

For a further experiment, the target named is T1, CDK7 (Homo sapiens, UniProt P50613).
T1 construct: purchased Life Technologies (Adapta kinase assay service)
T1 sequence (P50613 whole entry): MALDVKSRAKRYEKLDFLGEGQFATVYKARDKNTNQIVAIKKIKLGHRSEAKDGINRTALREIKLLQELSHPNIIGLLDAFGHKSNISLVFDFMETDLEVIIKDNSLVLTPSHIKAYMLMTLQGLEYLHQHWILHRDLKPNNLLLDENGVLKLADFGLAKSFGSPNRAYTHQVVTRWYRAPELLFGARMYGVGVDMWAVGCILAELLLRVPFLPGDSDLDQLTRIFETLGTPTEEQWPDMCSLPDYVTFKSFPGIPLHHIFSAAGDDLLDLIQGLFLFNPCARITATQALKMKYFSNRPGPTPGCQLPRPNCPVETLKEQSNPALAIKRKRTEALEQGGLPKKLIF
T1 sequence (P51946 whole entry partner): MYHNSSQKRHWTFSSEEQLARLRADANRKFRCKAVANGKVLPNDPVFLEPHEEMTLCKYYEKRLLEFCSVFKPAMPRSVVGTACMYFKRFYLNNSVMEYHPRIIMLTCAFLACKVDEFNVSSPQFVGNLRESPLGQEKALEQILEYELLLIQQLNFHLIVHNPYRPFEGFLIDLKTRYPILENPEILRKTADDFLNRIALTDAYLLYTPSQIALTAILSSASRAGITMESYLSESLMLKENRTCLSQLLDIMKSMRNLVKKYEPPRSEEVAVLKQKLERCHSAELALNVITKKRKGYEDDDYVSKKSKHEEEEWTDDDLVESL
T1 sequence (P51948 whole entry partner): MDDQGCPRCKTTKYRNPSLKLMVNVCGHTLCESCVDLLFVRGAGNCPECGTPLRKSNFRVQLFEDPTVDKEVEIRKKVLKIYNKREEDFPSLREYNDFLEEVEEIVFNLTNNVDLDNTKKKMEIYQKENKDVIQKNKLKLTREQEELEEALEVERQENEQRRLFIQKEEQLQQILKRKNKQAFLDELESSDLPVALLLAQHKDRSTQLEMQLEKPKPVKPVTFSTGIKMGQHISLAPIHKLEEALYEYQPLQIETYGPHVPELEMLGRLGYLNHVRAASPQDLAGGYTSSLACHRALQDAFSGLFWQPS
Put plainly: CDK7 kinase activity, Adapta kinase assay (Life Technologies). To be noted: Adapta kinase assay at Life Technologies; 10 μM down to 0.514 nM, 3-fold serial dilutions; read-out: CDK7 Inhibition (IC50). It counts as biochemical. A digest of the protocol: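 Adapta kinase activity assay run as a commercial service; substrates not specified here. Compounds tested in 3-fold serial dilutions from 10 μM down to 0.514 nM.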

Experiment [1] deals with CDK7/Cyclin H/MAT1 trimeric complex (Homo sapiens, UniProt P50613). Nature of the experiment: CDK7 kinase assay, Caliper/LabChip EZ Reader (Biortus Biosciences). It counts as biochemical. To be noted: CDK7/Cyclin H/MAT1 10 nM, ATP 2 mM, FAM-CDK7tide 2 μM, 30 min incubation, read-out: CDK7 Inhibition (IC50). How it is done:
Compounds of the invention were further assayed for CDK7 activity at Biortus Biosciences (Jiangyin, Jiangsu Province, P.R. of China) using a CDK7 kinase assay developed with a Caliper/LabChip EZ Reader (Perkin Elmer, Waltham, Mass.). […] The incubation period was chosen such that the total fraction of phosphorylated peptide product produced was <20% for the uninhibited kinase.

CDK7/Cyclin H/MAT1 trimeric complex, sequence (P50613 whole entry): as the sequence (P50613 whole entry) above
CDK7/Cyclin H/MAT1 trimeric complex, sequence (P51946 whole entry partner): as the sequence (P51946 whole entry partner) above
CDK7/Cyclin H/MAT1 trimeric complex, sequence (P51948 whole entry partner): as the sequence (P51948 whole entry partner) above

As usually defined, the IC50 is the concentration needed to halve the response being measured. Turning to “4-trans-acrylamido-N-((1S,3R)-3-(5-chloro-4-(1H-indol-3-yl)pyrimidin-2-ylamino)cyclohexyl)cyclohexanecarboxamide [Compound 117]”, the IC50 in the experiment with Jurkat cells was < 500 nM; in the experiment with A673 cells, < 500 nM; on CDK7, < 100 nM; in experiment [1], < 100 nM.
Turning to `C=CC(=O)N1CCN(CC2(O)CCC[C@@H](Nc3ncc(Cl)c(-c4c[nH]c5ccccc45)n3)C2)CC1` (single isomer, unassigned) [Compound 188], the IC50 with Jurkat cells is < 500 nM; in the experiment on A673 cells it was < 500 nM; in experiment [1], < 100 nM.
Consider `CN(C)C/C=C/C(=O)Nc1ccc(C(=O)N[C@H]2CCC[C@@H](Nc3ncc(Cl)c(-c4c[nH]c5ccccc45)n3)C2)nc1` [Compound 106, N-((1S,3R)-3-(5-chloro-4-(1H-indol-3-yl)pyrimidin-2-ylamino)cyclohexyl)-5-((E)-4-(dimethylamino)but-2-enamido)picolinamide], for which the IC50 with A673 cells (Homo sapiens) was < 500 nM; at CDK7, < 100 nM; in experiment [1], < 100 nM.
Turning to `CN(C)C/C=C/C(=O)Nc1ccc(C(=O)N[C@H]2CCC[C@@H](Nc3ncc(C#N)c(-c4c[nH]c5ccccc45)n3)C2)nc1` [Compound 110, N-((1S,3R)-3-(5-cyano-4-(1H-indol-3-yl)pyrimidin-2-ylamino)cyclohexyl)-5-((E)-4-(dimethylamino)but-2-enamido)picolinamide], the IC50 is < 500 nM with Jurkat cells (Homo sapiens), < 500 nM in the experiment on A673 cells (Homo sapiens), < 100 nM at CDK7 and < 100 nM in experiment [1].
With `C=CC(=O)Nc1cnc(C(=O)N[C@H]2CCC[C@@H](Nc3ncc(Cl)c(-c4c[nH]c5ccccc45)n3)C2)nc1` [Compound 112, 5-acrylamido-N-((1S,3R)-3-(5-chloro-4-(1H-indol-3-yl)pyrimidin-2-ylamino)cyclohexyl)pyrimidine-2-carboxamide], the IC50 in the experiment on Jurkat cells (Homo sapiens) was > 5000 nM; in the experiment with A673 cells (Homo sapiens), < 500 nM; on CDK7 it was < 100 nM; in experiment [1], 100 to 1000 nM.
On to `CN(C)C/C=C/C(=O)Nc1cnc(C(=O)N[C@H]2CCC[C@@H](Nc3ncc(Cl)c(-c4c[nH]c5ccccc45)n3)C2)nc1` [Compound 113, N-((1S,3R)-3-(5-chloro-4-(1H-indol-3-yl)pyrimidin-2-ylamino)cyclohexyl)-5-((E)-4-(dimethylamino)but-2-enamido)pyrimidine-2-carboxamide], for which the IC50 in the experiment with Jurkat cells (Homo sapiens) is < 500 nM; with A673 cells (Homo sapiens), < 500 nM; on CDK7, < 100 nM; in experiment [1], < 100 nM.
Take `C=CC(=O)N1CCC[C@H]1C(=O)N[C@H]1CCC[C@@H](Nc2ncc(Cl)c(-c3c[nH]c4ccccc34)n2)C1` [Compound 115, (S)-1-acryloyl-N-((1S,3R)-3-(5-chloro-4-(1H-indol-3-yl)pyrimidin-2-ylamino)cyclohexyl)pyrrolidine-2-carboxamide]: the IC50 with Jurkat cells (Homo sapiens) was < 500 nM; in the experiment on A673 cells (Homo sapiens), < 500 nM; at CDK7 it was < 100 nM; in experiment [1] it was < 100 nM.
Turning to `C=CC(=O)N1CC(F)(F)C[C@H]1C(=O)N[C@H]1CCC[C@@H](Nc2ncc(Cl)c(-c3c[nH]c4ccccc34)n2)C1` [Compound 116, (S)-1-acryloyl-N-((1S,3R)-3-(5-chloro-4-(1H-indol-3-yl)pyrimidin-2-ylamino)cyclohexyl)-4,4-difluoropyrrolidine-2-carboxamide], the IC50 in the experiment with A673 cells (Homo sapiens) was < 500 nM; at CDK7 it was < 100 nM; in experiment [1], < 100 nM.
As for `C=CC(=O)N1CCC(C(=O)N[C@H]2CCC[C@@H](Nc3ncc(Cl)c(-c4c[nH]c5ccccc45)n3)C2)CC1` [Compound 118, 1-acryloyl-N-((1S,3R)-3-(5-chloro-4-(1H-indol-3-yl)pyrimidin-2-ylamino)cyclohexyl)piperidine-4-carboxamide], the IC50 in the experiment with Jurkat cells (Homo sapiens) is < 500 nM; in the experiment on A673 cells (Homo sapiens), < 500 nM; on CDK7, < 100 nM; in experiment [1], < 100 nM.
Take `C=CC(=O)N1CCC(CN[C@H]2CCC[C@@H](Nc3ncc(Cl)c(-c4c[nH]c5ccccc45)n3)C2)CC1` [Compound 124, 1-(4-(((1S,3R)-3-(5-chloro-4-(1H-indol-3-yl)pyrimidin-2-ylamino)cyclohexylamino)methyl)piperidin-1-yl)prop-2-en-1-One]: the IC50 in the experiment on Jurkat cells (Homo sapiens) was > 5000 nM; at CDK7 it was < 100 nM; in experiment [1], < 100 nM.
In the case of `C=CC(=O)N1CCC(NC[C@H]2CCC[C@@H](Nc3ncc(Cl)c(-c4c[nH]c5ccccc45)n3)C2)CC1` [Compound 127, 1-[4-[[(1S,3R)-3-[[5-chloro-4-(1H-indol-3-yl)pyrimidin-2-yl]amino]cyclohexyl]methylamino]-1-piperidyl]prop-2-en-1-One], the IC50 in the experiment on Jurkat cells (Homo sapiens) is > 5000 nM; in the experiment with A673 cells (Homo sapiens), < 500 nM; on CDK7, < 100 nM; in experiment [1], < 100 nM.
On to `C=CC(=O)N1CCCC(C(=O)N[C@H]2CC[C@H](Nc3ncc(Cl)c(-c4c[nH]c5ccccc45)n3)CC2)C1` (some centres unmarked) [Compound 158, 1-acryloyl-N-((1r,4r)-4-(5-chloro-4-(1H-indol-3-yl)pyrimidin-2-ylamino)cyclohexyl)piperidine-3-carboxamide], for which the IC50 in the experiment on Jurkat cells (Homo sapiens) is 500 to 5000 nM; on CDK7, < 100 nM; in experiment [1] it was < 100 nM.
With `C=CC(=O)N1CCN([C@H]2CCC[C@@H](Nc3ncc(Cl)c(-c4c[nH]c5ccccc45)n3)C2)CC1` [Compound 168, 1-(4-((1S,3R)-3-(5-chloro-4-(1H-indol-3-yl)pyrimidin-2-ylamino)cyclohexyl)piperazin-1-yl)prop-2-en-1-One], the IC50 with A673 cells (Homo sapiens) was < 500 nM; on CDK7, < 100 nM; in experiment [1], < 100 nM.
Consider `C=CC(=O)N1CCC[C@@H]1C(=O)N[C@H]1CCC[C@@H](Nc2ncc(Cl)c(-c3c[nH]c4ccccc34)n2)C1` [Compound 173, (R)-1-acryloyl-N-((1S,3R)-3-(5-chloro-4-(1H-indol-3-yl)pyrimidin-2-ylamino)cyclohexyl)pyrrolidine-2-carboxamide], for which the values for the IC50 (with Jurkat cells (Homo sapiens); on CDK7; in experiment [1]) were 500 to 5000 nM, < 100 nM and < 100 nM, respectively.
Turning to `O=C(NC1CCCC(Nc2ncc(Cl)c(-c3cnn4ccccc34)n2)C1)C1CCN(C(=O)C=CCN2CCN(C3CC3)CC2)CC1` (centres unmarked) [Compound 223], the IC50 in the experiment with Jurkat cells is > 5000 nM; on CDK7, < 100 nM; in experiment [1], < 100 nM.
In the case of `C=CC(=O)N1CC(N(C)[C@H]2CCC[C@@H](Nc3ncc(Cl)c(-c4c[nH]c5ccccc45)n3)C2)C1` [Compound 224], the IC50 in the experiment on Jurkat cells (Homo sapiens) was > 5000 nM; at CDK7, < 100 nM; in experiment [1], < 100 nM.
In the case of `CN(C)CC=CC(=O)N1CC(N(C)C2CCCC(Nc3ncc(Cl)c(-c4c[nH]c5ccccc45)n3)C2)C1` (centres unmarked) [Compound 231], the IC50 (at CDK7; in experiment [1]) was < 100 nM each time.
With `CN(C)C/C=C/C(=O)Nc1ccc(C(=O)N[C@H]2CCC[C@@H](Nc3ncc(C(F)(F)F)c(-c4c[nH]c5ccccc45)n3)C2)nc1` [Compound 248, N-((1S,3R)-3-((4-(1H-indol-3-yl)-5-(trifluoromethyl)pyrimidin-2-yl)amino)cyclohexyl)-5-((E)-4-(dimethylamino)but-2-enamido)picolinamide], the values for the IC50 (in the experiment on A673 cells (Homo sapiens); on CDK7; in experiment [1]) were < 500 nM, < 100 nM and < 100 nM, respectively.
As to `C=CC(=O)N1CCN([C@H]2CCC[C@@H](Nc3ncc(Cl)c(-c4c[nH]c5ccccc45)n3)C2)C(=O)C1` [compound 410], the IC50 in the experiment with A673 cells is < 500 nM; in experiment [1] it was < 100 nM.
